Test results: US20230065371A1, “PROCESS FOR MANUFACTURING SOLID NEUTRAL AMINO ACID SALTS OF POLYUNSATURATED FATTY ACIDS” (SILICYCLE INC., priority 2020, published 2023)

Test: Oxidative status / stability (PV, AV, Totox; CDR FoodLab Junior analyzer), storage with closed lids at room temperature
Assay type: physicochemical
Details: for TOTOX: Totox=2*PV+AV
Description: The final product in powder form is isolated by evaporating said first and second organic solvents and water from the reaction mixture to recover said basic amino acid salts of PUFAs. Preferably, said evaporation step is carried under reduced pressure between about 0° C.-70° C. depending on the properties of the equipment used. The oxidative status of the obtained final product described herein is quantified by peroxide value (PV), anisidine value (AV) and Totox value. PV is a measure of the level of the primary oxidation products (lipid hydroperoxides) in the product, which is specified in milliequivalents O2 per kg of sample, while the AV is an unspecific measure of saturated and unsaturated carbonyl compounds. Totox is calculated by the equation Totox=2*PV+AV.
The comparison of oxidative status of amino acid salts of omega-3, starting material in ester form and fish oil in free acid form are assessed by measuring the PV and AV, then all the samples are subjected to the same oxidizing condition over a certain period of time, followed by the measuring PV and AV of the samples. The oxidizing conditions are selected from one of them as below: 1) Storage in closed containers at atmospheric condition for 7 months; or 2) Storage in loose closed containers exposed to air at 40° C. for 1 month.
Food Lab Analyzer: Among several techniques known in the art for determining the oxidative levels of a sample. The CDR FoodLab® Junior analyzer is used herein for determining PV and AV. The procedures are as described below:
The solid product 0.5 g was dissolved in 2 ml of MeOH and HCl solution with the ratio of 1:10 (v/v). The mixture was stirred for 5 minutes, followed by the addition of 5 ml of water. The mixture was extracted with 3 ml of hexane containing 100 ppm butylhydroxytoluene (BHT). The organic layer was dried over MgSO4, filtrated and evaporated under reduced pressure at the temperature of 0-70° C. to get the fish oil in free acid form, which is evaluated with the CDR FoodLab® Junior analyzer to get anisidine and peroxide values using the CDR FoodLab® Junior analyzer.
The molar ratio of EPA, NaOH and glycine was 1:1:1. The mixture was stirred at atmospheric condition (i.e. atmospheric pressure and room temperature) for 5 minutes to obtain a suspension solution. 100 mL of acetonitrile was added to further precipitate the glycine salt. […] About 8 g of EPA-gly was stored in a 20 ml of clear vial with a diameter of 27 mm, which was placed with closed lids on the bench at room temperature for the stability examination for 60 days.

[1] = Table 1, time 60 d, closed lids, room temperature
[2] = salt as generated, after roughing pump for 1 day

SMILES | AV (Table 1, time 1 d) [A/g] | PV (Table 1, time 1 d) [meq O2/Kg] | AV [1] [A/g] | PV [1] [meq O2/Kg] | TOTOX [1] | PV [2] [meqO2/kg] | TOTOX (Table 1, time 1 d) | AV [2] [A/g]
CC/C=C\C/C=C\C/C=C\C/C=C\C/C=C\C/C=C\CCC(=O)O.NCC(=O)O [DHA-gly, glycine salt of docosahexaenoic acid] | >100 | 9.71 | 7.4 | 1.92 | 11.24 | 9.71 |  | 
CC/C=C\C/C=C\C/C=C\C/C=C\C/C=C\CCCC(=O)O.NCC(=O)O [EPA-gly, glycine salt of eicosapentaenoic acid] | 14.6 | 29.9 | <0.5 | 1.19 | 2.38 | 29.9 | 74.4 | 14.6
